Assay results published in patent US20240148821A1, “PHARMACEUTICAL USE OF CYCLIC PEPTIDE COMPOUND” (CHUGAI SEIYAKU KABUSHIKI KAISHA, priority 2021, published 2024).
pIC50: −log10 of the molar value. Bridge positions count the residues as written; N and C are the ends. Square brackets hold non-standard residues; d marks the D form. Peptide text beside a SMILES is read from it. * marks the point of attachment. hPhe(3-Cl-4-CF3) = N[C@@H](CCc1ccc(C(F)(F)F)c(Cl)c1)C(=O)O; hPhe(3-F,4-CF3) = N[C@@H](CCc1ccc(C(F)(F)F)c(F)c1)C(=O)O; hPhe(4-CF3) = N[C@@H](CCc1ccc(C(F)(F)F)cc1)C(=O)O; Pro(cis-4-Ph) = O=C(O)[C@@H]1C[C@H](c2ccccc2)CN1; NMePhe(4-Cl) = CN[C@@H](Cc1ccc(Cl)cc1)C(=O)O; NMePhe(4-Me) = CN[C@@H](Cc1ccc(C)cc1)C(=O)O; NMeMet(O2) = CN[C@@H](CCS(C)(=O)=O)C(=O)O; NMeGly(cPent) = CN[C@H](C(=O)O)C1CCCC1; Phe(2-OMe) = COc1ccccc1C[C@H](N)C(=O)O; Phe(3-I) = N[C@@H](Cc1cccc(I)c1)C(=O)O; NMeCha = CN[C@@H](CC1CCCCC1)C(=O)O; NMeChg = CN[C@H](C(=O)O)C1CCCCC1; NMeF = CN[C@@H](Cc1ccccc1)C(=O)O; NMeT = CN[C@H](C(=O)O)[C@@H](C)O; NMeD = CN[C@@H](CC(=O)O)C(=O)O; NMeL = CN[C@@H](CC(C)C)C(=O)O; NMeV = CN[C@H](C(=O)O)C(C)C; d(β3hA) = C[C@@H](N)CC(=O)O; Pip = O=C(O)[C@@H]1CCCCN1; NMeA = CN[C@@H](C)C(=O)O; NMeAib = CNC(C)(C)C(=O)O; Piperidide = C1CCN(*)CC1; dNMeA = CN[C@H](C)C(=O)O; Ac5c = NC1(C(=O)O)CCCC1; Aze = O=C(O)[C@@H]1CCN1; Ac3c = NC1(C(=O)O)CC1; Sar = CNCC(=O)O

What follows are compounds tested on Human pancreatic cancer cell line AsPC-1 (G12D mutation Kras) (assay: AsPC-1 cell growth inhibition (AsPC-1 CGI)). Conditions: read-out: AsPC-1 cell growth inhibition, 50% growth inhibitory concentration (IC50 value); 96 hours, CellTiter-Glo, values classified in ranges.
Format: cell-based
Method: Test compounds were serially dilated with dimethyl sulfoxide, and 200 nL was then dispensed to a U-bottom 96-well plate using Labcyte Echo. […] The cell suspension was dispensed to a. plate containing a test compound at 100 μL per well and incubated at 37° C. in a 5% carbon dioxide gas incubator. 96 hours later, 80 μL of CellTiter-Glo (Promega) was added to each well and fluorescence was measured.
For `CC[C@H](C)[C@@H]1NC(=O)[C@H](CC(C)C)N(C)C(=O)C[C@@H](C(=O)N2CCCCC2)N(C)C(=O)[C@H](C2CCCCC2)N(C)C(=O)C2(CCCC2)NC(=O)[C@@H]2CCCN2C(=O)[C@H](CCc2ccc(C(F)(F)F)c(Cl)c2)NC(=O)CN(C)C(=O)[C@H](CCS(C)(=O)=O)N(C)C(=O)CN(C)C(=O)CN(C)C1=O` [Compound 1094] ([NMeL]I[Sar][Sar][NMeMet(O2)][Sar][hPhe(3-Cl-4-CF3)]P[Ac5c][NMeChg][NMeD]-Piperidide; lactam N-11), the pIC50 was < 6.30.
`CC[C@H](C)[C@@H]1NC(=O)[C@H](CC(C)C)N(C)C(=O)C[C@@H](C(=O)N2CCCCC2)N(C)C(=O)[C@H](C2CCCCC2)N(C)C(=O)C2(CCCC2)NC(=O)[C@@H]2C[C@H](c3ccccc3)CN2C(=O)[C@H](CCc2ccc(C(F)(F)F)c(Cl)c2)NC(=O)CN(C)C(=O)[C@H](CC2CCCCC2)N(C)C(=O)[C@@H]2CCCN2C(=O)CN(C)C1=O` [Compound 1096] ([NMeL]I[Sar]P[NMeCha][Sar][hPhe(3-Cl-4-CF3)][Pro(cis-4-Ph)][Ac5c][NMeChg][NMeD]-Piperidide; lactam N-11) was tested, and the pIC50 was < 6.30.
With `CC[C@H](C)[C@@H]1NC(=O)[C@H](CC(C)C)N(C)C(=O)C[C@@H](C(=O)N2CCCCC2)N(C)C(=O)[C@H](C2CCCC2)N(C)C(=O)C2(CCCC2)NC(=O)[C@@H]2CCCN2C(=O)[C@H](CCc2ccc(C(F)(F)F)c(F)c2)NC(=O)CN(C)C(=O)[C@H](C2CCCC2)N(C)C(=O)[C@@H]2CCN2C(=O)[C@H](C)N(C)C1=O` [Compound 1099] ([NMeL]I[NMeA][Aze][NMeGly(cPent)][Sar][hPhe(3-F,4-CF3)]P[Ac5c][NMeGly(cPent)][NMeD]-Piperidide; lactam N-11) the pIC50 was ≥ 7.70.
For `CC[C@H](C)[C@@H]1NC(=O)[C@H](CC(C)C)N(C)C(=O)C[C@@H](C(=O)N2CCCCC2)N(C)C(=O)[C@H](CC(C)C)NC(=O)C(C)(C)N(C)C(=O)[C@H](Cc2ccccc2OC)NC(=O)[C@H](Cc2cccc(I)c2)NC(=O)CN(C)C(=O)[C@H](Cc2ccc(C)cc2)N(C)C(=O)CN(C)C(=O)CN(C)C1=O` [Compound 1100] ([NMeL]I[Sar][Sar][NMePhe(4-Me)][Sar][Phe(3-I)][Phe(2-OMe)][NMeAib]L[NMeD]-Piperidide; lactam N-11), the pIC50 was < 6.30.
In the case of `CC[C@H](C)[C@@H]1NC(=O)[C@H](CC(C)C)N(C)C(=O)C[C@@H](C(=O)N2CCCCC2)N(C)C(=O)[C@H]([C@@H](C)OC)N(C)C(=O)C2(CCCC2)NC(=O)[C@@H]2CCCN2C(=O)[C@H](CCc2ccc(C(F)(F)F)c(Cl)c2)NC(=O)CN(C)C(=O)[C@H](CC2CCCCC2)N(C)C(=O)CN(C)C(=O)CN(C)C1=O` [Compound 1101] ([NMeL]I[Sar][Sar][NMeCha][Sar][hPhe(3-Cl-4-CF3)]P[Ac5c][NMeT](Me)[NMeD]-Piperidide; lactam N-11), the pIC50 was < 6.30.
In the case of `CC[C@H](C)[C@@H]1NC(=O)[C@H](C)N(C)C(=O)C[C@@H](C(=O)N2CCCCC2)N(C)C(=O)[C@H](C(C)C)N(C)C(=O)C2(CCCC2)NC(=O)[C@@H]2CCCN2C(=O)[C@H](CCc2ccc(C(F)(F)F)c(Cl)c2)NC(=O)[C@@H](C)N(C)C(=O)[C@H](CC2CCCCC2)N(C)C(=O)[C@@H]2CCN2C(=O)[C@H](C)N(C)C1=O` [Compound 1103] ([NMeA]I[NMeA][Aze][NMeCha][dNMeA][hPhe(3-Cl-4-CF3)]P[Ac5c][NMeV][NMeD]-Piperidide; lactam N-11), the pIC50 was < 6.30.
With `CC[C@H](C)[C@@H]1NC(=O)[C@H](CC(C)C)N(C)C(=O)C[C@@H](C(=O)N2CCCCC2)N(C)C(=O)[C@H](C(C)C)NC(=O)C2(CCCC2)NC(=O)[C@@H]2CCCN2C(=O)[C@H](CCc2ccc(C(F)(F)F)c(Cl)c2)NC(=O)CN(C)C(=O)[C@H](CC2CCCCC2)N(C)C(=O)[C@@H]2CCN2C(=O)[C@H](C)N(C)C1=O` [Compound 1106] ([NMeL]I[NMeA][Aze][NMeCha][Sar][hPhe(3-Cl-4-CF3)]P[Ac5c]V[NMeD]-Piperidide; lactam N-11) the pIC50 was < 6.30.
For `CC[C@H](C)[C@@H]1NC(=O)[C@@H]2CCCCN2C(=O)C[C@@H](C)NC(=O)[C@H](C(C)C)N(C)C(=O)[C@H](Cc2ccccc2)N(C)C(=O)[C@H](CC(C)C)N(C)C(=O)[C@H](CCc2ccc(C(F)(F)F)cc2)NC(=O)CN(C)C(=O)[C@H](Cc2ccc(Cl)cc2)N(C)C(=O)CN(C)C(=O)CN(C)C1=O` [Compound 1110] (cyclo(I[Sar][Sar][NMePhe(4-Cl)][Sar][hPhe(4-CF3)][NMeL][NMeF][NMeV][d(β3hA)][Pip])), the pIC50 was < 6.30.
In the case of `CC[C@H](C)[C@@H]1NC(=O)[C@H](CC(C)C)N(C)C(=O)C[C@@H](C)NC(=O)[C@H](C(C)C)N(C)C(=O)C2(CC2)NC(=O)[C@@H]2CCCN2C(=O)[C@H](CCc2ccc(C(F)(F)F)c(Cl)c2)NC(=O)CN(C)C(=O)[C@H](CC2CCCCC2)N(C)C(=O)CN(C)C(=O)CN(C)C1=O` [Compound 1111] (cyclo([Ac3c][NMeV][d(β3hA)][NMeL]I[Sar][Sar][NMeCha][Sar][hPhe(3-Cl-4-CF3)]P)), the pIC50 was < 6.30.
